Results taken from patent US9579383B2, “Formulations for enhanced bioavailability of orally administered polar agents” (ALA WAI PHARMA, INC., priority 2007, dated 2017).
Read-outs that look alike come from different tables or passages of the source.

Legend:
Caco-2 cell monolayers [1] = test: Caco-2 cell permeability assay of peramivir with permeability enhancers; details: for Fold-Enhancement Over Control / ng peramivir transported/min: peramivir 15 μg/mL
Caco-2 cell monolayers [2] = system: Caco-2 cell monolayers
Caco-2 cells = test: cytotoxicity of PPS at the concentrations used; type: cell-based; details: in the concentrations used (0.001% to 0.01%)
viral neuraminidase = details: depending on the influenza strain; based on concentrations required for 50% inhibition of neuraminidase activity in vitro; cited from earlier work
influenza A and B = details: oral formulation, phase III clinical trial; cited from earlier work
[3] = system: avian influenza virus (H5N1); details: cited from earlier work
[4] = human, in vivo; cited from earlier work
[5] = enhancer concentration 0.05% in HBSS
[6] = enhancer concentration 0.10% in HBSS
[7] = enhancer concentration 0.20% in HBSS

phosphatidylcholine
peramivir permeability enhancement in Caco-2 cell assays (in words) (Caco-2 cell monolayers [1]): some potential for peramivir permeability enhancement | Fold-Enhancement Over Control (Caco-2 cell monolayers [1]; [5]): 2.11 fold | ng peramivir transported/min (Caco-2 cell monolayers [1]; [5]): 0.4 ng/min | Fold-Enhancement Over Control (Caco-2 cell monolayers [1]; [6]): 2.11 fold | ng peramivir transported/min (Caco-2 cell monolayers [1]; [6]): 0.4 ng/min | Fold-Enhancement Over Control (Caco-2 cell monolayers [1]; [7]): 7 fold | ng peramivir transported/min (Caco-2 cell monolayers [1]; [7]): 1.33 ng/min

OCC(O)CO [Glycerol, glycerol]
peramivir permeability (in words) (Caco-2 cell monolayers [2]): substantial increase in peramivir permeability | peramivir permeability enhancement (Caco-2 cell monolayers [2]; human): Less than 150%

O=C([O-])c1ccccc1O.[Na+] [sodium salicylate]
peramivir permeability enhancement in Caco-2 cell assays (in words) (Caco-2 cell monolayers [1]): negative

CCCCCCCC/C=C\CCCCCCCC(=O)OCCOCC(OCCO)C1OCC(OCCO)C1OCCO (stereo not drawn) [Tween-80]
peramivir permeability enhancement in Caco-2 cell assays (in words) (Caco-2 cell monolayers [1]): negative

CCCCCCCCCCCCCCCC[N+](C)(C)CCCS(=O)(=O)[O-] [PPS, 3-(N,N-dimethylpalmitylammonio)propane sulfonate]
cytotoxicity (Caco-2 cells): not cytotoxic | peramivir permeability (in words) (Caco-2 cell monolayers [1]; PPS varying from 0.001% to 0.01% final concentration): substantially increased peramivir permeability

CN1CCNCC1 [N-Methylpiperazine, N-methylpiperazine]
peramivir permeability enhancement in Caco-2 cell assays (in words) (Caco-2 cell monolayers [1]): negative

CCC(CC)[C@H](NC(C)=O)[C@@H]1[C@H](O)[C@@H](C(=O)O)C[C@H]1NC(=N)N [peramivir, (1S,2S,3S,4R)-3-[(1S)-1-Acetamido-2-ethyl-butyl]-4-(diaminomethylideneamino)-2-hydroxy-cyclopentane-1-carboxylic acid]
potency as neuraminidase inhibitor relative to oseltamivir (Tamiflu®) and zanimivir (viral neuraminidase): 2 to 10 times | antiviral activity against influenza A and B (influenza A and B): did not reach statistical significance | sensitivity to peramivir [3]: sensitive | oral bioavailability [4]: very poor oral bioavailability
